What was measured:
Type in all cases: cell-based
[1] = test system: PC3 cells, PTPN12 mouse embryonic fibroblasts (MEFs); test: Cell migration in a Boyden chamber; details: PC-3, cell line of Table 2 not stated
Description: A range of cell lines are used in this assay, particularly the prostate cancer cell line PC3 and PTPN12 mouse embryonic fibroblasts (MEFs). The role of PTPN12 in migration was established based on the observations of PTPN12 negative MEFs. Cell adhesion and migration are dynamic biological activities involving the assembly and disassembly of a large number of extracellular and intracellular molecules, for example, actin, which are regulated in turn by protein phosphorylation. […] Migration is reduced in PTPN12 knock-out MEFs. By extension, a PTPN12 inhibitor should reduce cell migration in a Boyden chamber. Therefore, as a readout for PTPN12 activity, the following assay is designed to analyze cell migration in Boyden chambers. […]
For tumour cell lines, stock cells (i.e. PC3 cells) are grown to 50-70% confluency in T175 flasks. […] Fluorescence of migrated cells is read in a Fluoroskan Ascent FL™ (or equivalent) with bottom reading at excitation/emission wavelength of 485/538 nm. Only those cells that have migrated through the pores of the FluoroBlok™ membrane will be read. […]
Data is expressed as fluorescence unit (FU) from the sum of middle 25 areas per 24-well or as percentage of migration inhibition by following formula: % of invasion inhibition=100−FU of compound treated cell invasion/FU of DMSO treated cell invasion times 100. […]

PC3 Cells = test: Cell proliferation (3H-thymidine incorporation), PC3; details: Homo sapiens, PC-3, 24 hours
Description: (§1) This procedure (Jelinkova, R. B. et al., “Antiproliferative effect of a lectin- and anti-Thy-1.2 antibody-targeted HPMA copolymer-bound doxorubicin on primary and metastatic human colorectal carcinoma and on human colorectal carcinoma transfected with the mouse Thy-1.2 gene”, Bioconjug. Chem. (2000, September-October), Vol. 11, No. 5, pp. 664-73) is used to assess the effect compounds have on various cell lines with respect to proliferation. The rate of anchorage-independent growth of various tumor cells is quantified by measuring the amount of free isotopic thymidine that has been incorporated into the cells over a period of time. The effect of any compound to inhibit the proliferation of various tumor cells could be used as an indication of its ability to prevent disease progression in cancer.
(§2) Cultured tumour cells are harvested cells as per normal procedures: i.e. trypsinize, centrifuge and count cells. […]
(§3) After incubation, plates are observed under the microscope for obvious cell death, abnormal cell shape, crystal formation of the compound, etc. […] Finally, 100 μL of scintillation fluid is added to each well and the plates are counted in a Wallac 1450 Microbeta™ counter according to user manual instructions.
(§4) The amount of inhibition is determined by the following formula: % inhibition=100−[(AVG treatment−AVG positive control)/[…]]

H460 Cells = test: Cell proliferation (3H-thymidine incorporation), H460; details: Homo sapiens, NCI-H460, 24 hours
Description: as §1, §2, §3, §4

**Q.** What does the source list for S=C1NC(=S)C(=Cc2ccc(-c3ccc(Br)cc3)o2)S1 [5-[5-(4-Bromophenyl)-furan-2-ylmethylene]-thiazolidine-2,4-dithione]?
**A.** inhibition at 25 µM [1]: 65%; inhibition at 50 µM (PC3 Cells): 15%; inhibition at 50 µM (H460 Cells): 89%

Source: patent publication US20060281798A1, “Methods of using thiazolidinedithione derivatives” (QLT Inc., priority 2002, published 2006)
